This test deals with T1, menin-MLL interaction (Homo sapiens, UniProt O00255).
T1 sequence (O00255 1-610): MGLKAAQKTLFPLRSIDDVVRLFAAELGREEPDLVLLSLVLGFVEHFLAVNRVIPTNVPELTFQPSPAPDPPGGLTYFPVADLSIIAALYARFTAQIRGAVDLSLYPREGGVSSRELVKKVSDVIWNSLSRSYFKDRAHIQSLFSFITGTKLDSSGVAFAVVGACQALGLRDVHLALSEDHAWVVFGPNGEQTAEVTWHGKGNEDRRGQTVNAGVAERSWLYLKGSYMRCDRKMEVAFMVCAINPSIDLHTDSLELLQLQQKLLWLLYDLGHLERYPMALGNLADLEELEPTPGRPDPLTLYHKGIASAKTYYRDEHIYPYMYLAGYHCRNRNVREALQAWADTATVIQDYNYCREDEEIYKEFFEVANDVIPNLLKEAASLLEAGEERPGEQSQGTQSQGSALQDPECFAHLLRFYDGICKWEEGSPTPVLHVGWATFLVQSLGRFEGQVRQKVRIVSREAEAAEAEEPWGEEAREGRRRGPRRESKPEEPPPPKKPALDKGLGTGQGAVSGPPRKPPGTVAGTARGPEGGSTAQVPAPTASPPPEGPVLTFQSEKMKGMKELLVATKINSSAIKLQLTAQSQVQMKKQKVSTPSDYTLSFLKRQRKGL
Kind of test: biochemical.

We go through 62 compounds from patent publication US9505781B2, “Compositions comprising thienopyrimidine and thienopyridine compounds and methods of use thereof” (The Regents of the University of Michigan, priority 2013, dated 2016).

Molecules are shown by their SMILES.

Description: Compounds that inhibit the interaction decrease the fluorescence anisotropy which is being used as a read-out for compound screening and for IC50 determination.

A word on the IC50: it is the concentration needed to halve the response being measured. As for `CC1(C)CN=C(N2CCN(c3ncnc4sc(CCCC(F)(F)F)cc34)CC2)S1` [Compound 22], the IC50 lay within 500 to 2000 nM.

`FC(F)(F)Cc1cc2c(N[C@H]3CCN(Cc4ccccc4)C[C@@H]3NCc3ccccc3)ncnc2s1` [Compound 167] yielded an IC50 of 100 to 500 nM.

For `FC(F)(F)Cc1cc2c(NC3CCN(Cc4ccc(C(F)(F)F)cc4)CC3)ncnc2s1` [Compound 146], the IC50 lay within 500 to 2000 nM.

The compound `Cc1c(CC(F)(F)F)sc2ncnc(N3CCN(c4nnc(C(F)(F)F)s4)CC3)c12` [Compound 7] had an IC50 of 100 to 500 nM.

`Cc1c(CN2CCC(Nc3ncnc4sc(CCF)cc34)CC2)ccc2[nH]c(C#N)cc12` [Compound 423] yielded an IC50 of less than 100 nM.

Regarding `N#Cc1cc2cc(CN3CCC(Nc4ncnc5sc(CC(F)(F)F)cc45)CC3)ccc2n1CCN1CCOCC1` [Compound 192], the IC50 was less than 100 nM.

`CCOc1cc2c(cc1CN1CCC(Nc3ncnc4sc(CC(F)(F)F)cc34)CC1)cc(C#N)n2C[C@H](O)CO` [Compound 217] returned an IC50 of less than 100 nM.

`CCCCN(CC1CCN(Cc2ccc(C#N)cc2)CC1)c1ncnc2sc(CC(F)(F)F)cc12` [Compound 264]: the IC50 was 500 to 2000 nM.

For the compound `N#Cc1cc2c(CO)c(CN3CCC(Nc4ncnc5sc(CC(F)(F)F)cc45)CC3)ccc2n1CCO` [Compound 321], the IC50 was less than 100 nM.

Regarding `Cc1c(CN2CCC(Nc3ncnc4sc(CC(F)(F)F)cc34)CC2)ccc2c1cc(C#N)n2CCS(C)(=O)=O` [Compound 354], the IC50 is less than 100 nM.

The compound `O=C1CCc2cc(CN3CCC(Nc4ncnc5sc(CC(F)(F)F)cc45)CC3)ccc2N1` [Compound 136] registered an IC50 of 500 to 2000 nM.

Compound `FC(F)(F)Cc1sc2ncnc3c2c1CNN3C1CCN(Cc2ccccc2)CC1` [Compound 158] registered an IC50 of 500 to 2000 nM.

As for `Cc1ccc(CN2CCC(Nc3ncnc4sc(CC(F)(F)F)cc34)CC2)cc1` [Compound 147], the IC50 was 500 to 2000 nM.

The compound `CCCc1cc2c(NC3CCN(Cc4ccccc4)CC3)ncnc2s1` [Compound 149] displayed an IC50 of 500 to 2000 nM.

`O=C(Cc1ccc(NS(=O)(=O)C2CC2)cc1Cl)N1CCN(C2=NC=NC3SC(CC(F)(F)F)=CC23)CC1` (centres unmarked) [Compound 285] displayed an IC50 of less than 100 nM.

With `N#Cc1cc2c(CCO)c(CN3CCC(Nc4ncnc5sc(CC(F)(F)F)cc45)CC3)ccc2[nH]1` [Compound 296], the IC50 was less than 100 nM.

The compound `Cc1ccccc1CN1CCC(Nc2ncnc3sc(CC(C)(F)F)cc23)CC1` [Compound 155] came in with an IC50 of 500 to 2000 nM.

Compound `FC(F)(F)Cc1cc2c(N[C@H]3CCN(Cc4ccccc4)C[C@@H]3NCCc3ccccc3)ncnc2s1` [Compound 168] came in with an IC50 of 100 to 500 nM.

Take `CC(C)CN(c1ccc(CC(=O)N2CCN(c3ncnc4sc(CC(F)(F)F)cc34)CC2)cc1)S(C)(=O)=O` [Compound 101]: the IC50 fell in the range of 500 to 2000 nM.

Take `O=C(Cc1ccccc1)N1CCN(c2ncnc3sc(CC(F)(F)F)cc23)CC1` [Compound 67]: the IC50 was in the range of 100 to 500 nM.

In turn, `COc1ccc(CCCc2nnc(N3CCN(c4ncnc5sc(CC(F)(F)F)cc45)CC3)s2)cc1` [Compound 12] registered an IC50 of 100 to 500 nM.

On to `OCCC(F)(F)Cc1cc2c(NC3CCN(Cc4ccccc4)CC3)ncnc2s1` [Compound 138], for which the IC50 fell in the range of 500 to 2000 nM.

`CCC(=O)N1CCN(CCn2c(C#N)cc3cc(CN4CCC(Nc5ncnc6sc(CC(F)(F)F)cc56)CC4)ccc32)CC1` [Compound 394] registered an IC50 of less than 100 nM.

Regarding `CCCc1cc2c(N(C)C3CCN(Cc4ccccc4)CC3)ncnc2s1` [Compound 150], the IC50 lay within 500 to 2000 nM.

In turn, `CN1CCC(N2CCN(c3ncnc4sc(CC(F)(F)F)cc34)CC2)CC1` [Compound 27] had a half-maximal inhibitory concentration (IC50) of 500 to 2000 nM.

Consider `FC(F)(F)Cc1cc2c(N3CCN(c4nnc(C5CC5)s4)CC3)ncnc2s1` [Compound 3], for which the IC50 lay in the range of 100 to 500 nM.

Compound `CS(=O)(=O)N(CC(N)=O)c1ccc(CC(=O)N2CCN(C3=NC=NC4SC(CC(F)(F)F)=CC34)CC2)c(Cl)c1` (centres unmarked) [Compound 84] showed an IC50 of 100 to 500 nM.

Turning to `CCOc1c(CN2CCC(Nc3ncnc4sc(CC(F)(F)F)cc34)CC2)ccc2[nH]c(C#N)cc12` [Compound 244], the IC50 lay in the range of 100 to 500 nM.

Consider `N#Cc1cc2c(C3CC3)c(CN3CCC(Nc4ncnc5sc(CC(F)(F)F)cc45)CC3)ccc2[nH]1` [Compound 293], for which the IC50 was less than 100 nM.

With `COCCCc1cc2c(N3CCN(C4=NCC(C)(C)S4)CC3)ncnc2s1` [Compound 25], the IC50 is 500 to 2000 nM.

Turning to `O=c1[nH]c2ccc(CN3CCC(Nc4ncnc5sc(CC(F)(F)F)cc45)CC3)cc2[nH]1` [Compound 250], the IC50 is 500 to 2000 nM.

As for `Cc1c(CN2CCC(Nc3ncnc4sc(CC(F)(F)F)cc34)CC2)ccc2c1cc(C#N)n2CC1CNC(=O)C1` (centres unmarked) [Compound 430], the IC50 is less than 100 nM.

The compound `CS(=O)(=O)N(CC1CCCC1)c1ccc(CC(=O)N2CCN(c3ncnc4sc(CC(F)(F)F)cc34)CC2)cc1` [Compound 100] had an IC50 of 500 to 2000 nM.

As to `Cc1c(CN2CCC(Nc3ncnc4sc(CC(F)(F)F)cc34)CC2)ccc2c1cc(C#N)n2CCN1CCN(C(=O)CCC2CC2)CC1` [Compound 344], the 50% inhibitory concentration (IC50) is less than 100 nM.

For the compound `N#Cc1cc2cc(CN3CCC(Nc4ncnc5sc(CC(F)(F)F)cc45)CC3)ccc2n1CO` [Compound 183], the IC50 was less than 100 nM.

Compound `N#Cc1nc2cc(CN3CCC(Nc4ncnc5sc(CC(F)(F)F)cc45)CC3)ccc2[nH]1` [Compound 249] yielded an IC50 of 500 to 2000 nM.

`N#Cc1cc2cc(CN3CCC(Nc4ncnc5sc(CC(F)(F)F)cc45)CC3)cc(F)c2[nH]1` [Compound 245]: the IC50 lay in the range of 100 to 500 nM.

In turn, `N#Cc1cc2cc(CN3CC[C@H](Nc4ncnc5sc(CC(F)(F)F)cc45)[C@H](CO)C3)ccc2[nH]1` [Compound 163] came in with an IC50 of less than 100 nM.

`Cc1cn[nH]c1Cn1c(C#N)cc2c(C)c(CN3CCC(Nc4ncnc5sc(CC(F)(F)F)cc45)CC3)ccc21` [Compound 330] came in with an IC50 of less than 100 nM.

On to `FC(F)(F)c1nnc(N2CCN(c3ncnc4sc(C(F)(F)C(F)(F)F)cc34)CC2)s1` [Compound 24], for which the IC50 lay in the range of 500 to 2000 nM.

`CC(C)NCCS(=O)(=O)Nc1ccc(CC(=O)N2CCN(c3ncnc4sc(CC(F)(F)F)cc34)CC2)cc1` [Compound 60] returned an IC50 of less than 100 nM.

Turning to `N#Cc1[nH]c2ccc(CN3CCC(Nc4ncnc5sc(CC(F)(F)F)cc45)CC3)cc2c1N` [Compound 233], the IC50 lay within 100 to 500 nM.

Turning to `O=C(Cc1ccc(Cc2ccoc2)cc1)N1CCN(c2ncnc3sc(CC(F)(F)F)cc23)CC1` [Compound 76], the IC50 is 100 to 500 nM.

The compound `N#Cc1cc2cc(CN3CCC(Nc4ncnc5sc(CC(F)(F)F)cc45)CC3)ccc2n1Cc1cscn1` [Compound 200] had an IC50 of less than 100 nM.

In the case of `OCc1cnc2sc(CC(F)(F)F)cc2c1NC1CCN(Cc2ccccc2)CC1` [Compound 280], the IC50 was less than 100 nM.

In turn, `Cc1c(CN2CCC(Nc3ncnc4sc(CC(F)(F)F)cc34)CC2)ccc2c1cc(C#N)n2Cc1cc(Cc2ccc(=O)[nH]c2)[nH]n1` [Compound 347] displayed a half-inhibitory concentration (IC50) of less than 100 nM.

`N#Cc1cc2cc(CN3CCC(Nc4ncnc5sc(CC(F)(F)F)cc45)CC3)ccc2n1Cc1cn[nH]c1` [Compound 202]: the IC50 is less than 100 nM.

The compound `Cc1ncc(Cn2c(C#N)cc3c(C)c(CN4CCC(Nc5ncnc6sc(CC(F)(F)F)cc56)CC4)ccc32)[nH]1` [Compound 351] had an IC50 of less than 100 nM.

Turning to `N#Cc1cc2cc(CN3CCC(Nc4ncnc5sc(CC(F)(F)F)cc45)CC3)ccc2n1CC(CO)OCC1CCCCC1` (centres unmarked) [Compound 320], the IC50 is less than 100 nM.

`Cc1c(CN2CCC(Nc3ncnc4sc(CC(F)(F)F)cc34)CC2)ccc2c1cc(C#N)n2CCc1cccnc1` [Compound 328] came in with an IC50 of less than 100 nM.

For `N#Cc1cc2cc(CN3CCC(Nc4ncnc5sc(CC(F)(F)F)cc45)CC3)ccc2n1C[C@@H](O)CO` [Compound 187], the IC50 was less than 100 nM.

In the case of `O=C1NCCC1c1ccc(CC(=O)N2CCN(c3ncnc4sc(CC(F)(F)F)cc34)CC2)cc1` (centres unmarked) [Compound 99], the IC50 lay within 500 to 2000 nM.

Turning to `Cc1ncc(Cn2c(C#N)cc3c(C)c(CN4CCC(Nc5ncnc6sc(CC(F)(F)F)cc56)CC4)ccc32)s1` [Compound 323], the IC50 was less than 100 nM.

Consider `CN1CCN(Cc2ccc(CN3CCC(Nc4ncnc5sc(CC(F)(F)F)cc45)CC3)cc2)CC1` [Compound 143], for which the IC50 is 500 to 2000 nM.

On to `NN(c1ncnc2sc(CC(F)(F)F)cc12)C1CCN(Cc2ccccc2)CC1` [Compound 123], for which the IC50 is 100 to 500 nM.

`N#Cc1c[nH]c2cc(CN3CCC(Nc4ncnc5sc(CC(F)(F)F)cc45)CC3)ccc12` [Compound 228] displayed an IC50 of 100 to 500 nM.

Take `FC(F)(F)Cc1cc2c(N3CCN(C4CCCCC4)CC3)ncnc2s1` [Compound 11]: the IC50 lay in the range of 100 to 500 nM.

Take `Cc1c(CN2CCC(Nc3ncnc4sc(CC(F)(F)F)cc34)CC2)ccc2c1cc(C#N)n2CC(O)CO` (centres unmarked) [Compound 300]: the IC50 is less than 100 nM.

`Nc1ccccc1CN1CCC(Nc2ncnc3sc(CC(F)(F)F)cc23)CC1` [Compound 113] returned an IC50 of 100 to 500 nM.

`CCS(=O)(=O)Nc1ccc(CC(=O)N2CCN(c3ncnc4sc(CC(F)(F)F)cc34)CC2)cc1` [Compound 49]: the IC50 is less than 100 nM.

Regarding `N[C@H]1CN(Cc2ccccc2)CC[C@@H]1Nc1ncnc2sc(CC(F)(F)F)cc12` [Compound 166], the IC50 lay in the range of 100 to 500 nM.

`Cc1c(CN2CCC(Nc3ncnc4sc(CC(F)(F)F)cc34)CC2)ccc2c1cc(C#N)n2CCN1CCN(S(=O)(=O)N(C)C)CC1` [Compound 375] returned an IC50 of less than 100 nM.
